Data as given in patent US12264159B2, “Functionalized heterocycles as antiviral agents” (Enanta Pharmaceuticals, Inc., priority 2018, dated 2025).

How the values were obtained:
[1] = tested on: HBV in 2.2.15 cells; test: 2.2.15 cells: viral product in cell lysates quantified via quantitative real time PCR; format: cell-based, hepatitis B virus (HBV); settings: Hepatitis B virus, 120 h, day 5 post treatment, 50% reduction of viral product vs no drug controls, readout (qPCR, HBsAg or HBeAg) not specified for the column
In short: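 HBV product was measured at day 5 by lysate qPCR or by supernatant HBsAg/HBeAg ELISA, in 2.2.15 cells seeded at 35,000/well and exposed to 5-fold compound dilution series (0.5% DMSO). EC50 is 50% reduction of viral product relative to untreated controls.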

[2] = Compound induced cellular toxicity in HepG2 cells, ATPlite 1Step; format: cell-based; settings: human, three days exposure, 50% reduction of total ATP vs no drug controls
Experimental: At day 3, post seeding cells are treated with ATPlite 1Step according to the manufacturer's instructions.

| SMILES | EC50 [1] [µM] | CC50 at 3 days [2] [µM] |
| --- | --- | --- |
| CC(C)[C@@H]1Cn2nc(C3CC3)c(-c3ccccc3)c2-c2cc(=O)c(C(=O)O)cn21 [Example 130, (R)-2-cyclopropyl-6-isopropyl-10-oxo-1-phenyl-5,6-dihydro-10H-pyrazolo[1,5-a]pyrido[2,1-c]pyrazine-9-carboxylic acid] | < 0.1 | > 25 |
| CC(C)(C)[C@@H]1Cn2nc(-c3ccc(F)c(F)c3)cc2-c2cc(=O)c(C(=O)O)cn21 [Example 60, (R)-6-(tert-butyl)-2-(3,4-difluorophenyl)-10-oxo-5,6-dihydro-10H-pyrazolo[1,5-a]pyrido[2,2-c]pyrazine-12-carboxylic acid] | < 0.1 | > 25 |
| CC(C)(C)[C@@H]1Cn2nc(-c3ccc(Cl)cc3)cc2-c2cc(=O)c(C(=O)O)cn21 [Example 13, (R)-6-(tert-butyl)-2-(4-chlorophenyl)-10-oxo-5,6-dihydro-10H-pyrazolo[1,5-a]pyrido[2,2-c]pyrazine-12-carboxylic acid] | < 0.1 | > 25 |
| COc1ccc(-c2c(C3CC3)nn3c2-c2cc(=O)c(C(=O)O)cn2[C@H](C(C)(C)C)C3)cc1 [Example 158, (R)-6-(tert-butyl)-2-cyclopropyl-1-(4-methoxyphenyl)-10-oxo-5,6-dihydro-10H-pyrazolo[1,5-a]pyrido[2,1-c]pyrazine-9-carboxylic acid] | < 0.1 | > 25 |
| C[C@@H]1Cn2nc(-c3cccc(F)c3)c(-c3cccc(F)c3)c2-c2cc(=O)c(C(=O)O)cn21 [Example 205, (R)-1,2-bis(3-fluorophenyl)-6-methyl-10-oxo-5,6-dihydro-10H-pyrazolo[1,5-a]pyrido[2,1-c]pyrazine-9-carboxylic acid] | < 0.1 | 10 to 25 |
| Cc1cccc(C)c1-c1cc2n(n1)C[C@@H](C(C)(C)C)n1cc(C(=O)O)c(=O)cc1-2 [Example 62, (R)-6-(tert-butyl)-2-(2,6-dimethylphenyl)-10-oxo-5,6-dihydro-10H-pyrazolo[1,5-a]pyrido[2,2-c]pyrazine-12-carboxylic acid] | 0.2 to 1 | > 25 |
| CC(C)(C)[C@@H]1Cn2nc(C3CC3)c(-c3ccc(F)cc3)c2-c2cc(=O)c(-c3ncn[nH]3)cn21 [Example 196, (R)-6-(tert-butyl)-2-cyclopropyl-1-(4-fluorophenyl)-9-(1H-1,2,4-triazol-5-yl)-5,6-dihydro-10H-pyrazolo[1,5-a]pyrido[2,1-c]pyrazin-10-one] | < 0.1 | > 25 |
| CC(C)(C)[C@@H]1Cn2nc(-c3cnco3)cc2-c2cc(=O)c(C(=O)O)cn21 [Example 7, (R)-6-(tert-butyl)-2-(oxazol-5-yl)-10-oxo-5,6-dihydro-10H-pyrazolo[1,5-a]pyrido[2,2-c]pyrazine-12-carboxylic acid] | 0.2 to 1 | > 25 |
| CC(C)(C)[C@@H]1Cn2nc(C3CC3)c(-c3ccccc3)c2-c2cc(=O)c(C(=O)O)cn21 [Example 149, (R)-6-(tert-butyl)-2-cyclopropyl-10-oxo-1-phenyl-5,6-dihydro-10H-pyrazolo[1,5-a]pyrido[2,1-c]pyrazine-9-carboxylic acid] | < 0.1 | > 25 |
| CCOc1cccc(F)c1-c1cc2n(n1)C[C@@H](C(C)(C)C)n1cc(C(=O)O)c(=O)cc1-2 [Example 74, (R)-6-(tert-butyl)-2-(2-ethoxy-6-fluorophenyl)-10-oxo-5,6-dihydro-10H-pyrazolo[1,5-a]pyrido[2,2-c]pyrazine-12-carboxylic acid] | < 0.1 | > 25 |
| CC(C)(C)[C@@H]1Cn2nc(-c3ccc(F)cc3F)cc2-c2cc(=O)c(C(=O)O)cn21 [Example 8, (R)-6-(tert-butyl)-2-(2,4-difluorophenyl)-10-oxo-5,6-dihydro-10H-pyrazolo[1,5-a]pyrido[2,2-c]pyrazine-12-carboxylic acid] | < 0.1 | > 25 |
| COc1ccccc1-c1cnn2c1-c1cc(=O)c(C(=O)O)cn1[C@H](C(C)(C)C)C2 [Example 112, (R)-6-(tert-butyl)-1-(2-methoxyphenyl)-10-oxo-5,6-dihydro-10H-pyrazolo[1,5-a]pyrido[2,1-c]pyrazine-9-carboxylic acid] | < 0.1 | > 25 |
| CC(C)[C@@H]1Cn2nc(-c3cccc(F)c3)c(-c3cccc(F)c3)c2-c2cc(=O)c(C(=O)O)cn21 [Example 181, (R)-1,2-bis(3-fluorophenyl)-6-isopropyl-10-oxo-5,6-dihydro-10H-pyrazolo[1,5-a]pyrido[2,1-c]pyrazine-9-carboxylic acid] | < 0.1 | 10 to 25 |
| CC(C)(C)[C@@H]1Cn2ncc(-c3ccoc3)c2-c2cc(=O)c(C(=O)O)cn21 [Example 102, (R)-6-(tert-butyl)-1-(furan-3-yl)-10-oxo-5,6-dihydro-10H-pyrazolo[1,5-a]pyrido[2,1-c]pyrazine-9-carboxylic acid] | < 0.1 | > 25 |
| CC(C)(C)[C@@H]1Cn2nc(-c3ccc(F)cc3)c(-c3cccc(F)c3)c2-c2cc(=O)c(C(=O)O)cn21 [Example 168, (R)-6-(tert-butyl)-1-(3-fluorophenyl)-2-(4-fluorophenyl)-10-oxo-5,6-dihydro-10H-pyrazolo[1,5-a]pyrido[2,1-c]pyrazine-9-carboxylic acid] | < 0.1 | 10 to 25 |
| CC(C)c1ccccc1-c1cc2n(n1)C[C@@H](C(C)(C)C)n1cc(C(=O)O)c(=O)cc1-2 [Example 83, (R)-6-(tert-butyl)-2-(2-isopropylphenyl)-10-oxo-5,6-dihydro-10H-pyrazolo[1,5-a]pyrido[2,2-c]pyrazine-12-carboxylic acid] | 0.2 to 1 | > 25 |
| Cc1cccc(-c2cnn3c2-c2cc(=O)c(C(=O)O)cn2[C@H](C(C)(C)C)C3)c1 [Example 125, (R)-6-(tert-butyl)-10-oxo-1-(m-tolyl)-5,6-dihydro-10H-pyrazolo[1,5-a]pyrido[2,1-c]pyrazine-9-carboxylic acid] | < 0.1 | > 25 |
| Cc1ccc(-c2cnn3c2-c2cc(=O)c(C(=O)O)cn2[C@H](C(C)(C)C)C3)cc1 [Example 126, (R)-6-(tert-butyl)-10-oxo-1-(p-tolyl)-5,6-dihydro-10H-pyrazolo[1,5-a]pyrido[2,1-c]pyrazine-9-carboxylic acid] | < 0.1 | > 25 |
| O=C(O)c1cn2c(cc1=O)-c1c(-c3cccc(F)c3)c(-c3cccc(F)c3)nn1CC2 [Example 201, 1,2-bis(3-fluorophenyl)-10-oxo-5,6-dihydro-10H-pyrazolo[1,5-a]pyrido[2,1-c]pyrazine-9-carboxylic acid] | < 0.1 | > 25 |
| CC(C)(C)[C@@H]1Cn2nnc(-c3ccc(F)cc3)c2-c2cc(=O)c(C(=O)O)cn21 [Example 208, (R)-6-(tert-butyl)-1-(4-fluorophenyl)-10-oxo-5,6-dihydro-10H-pyrido[1,2-a][1,2,3]triazolo[5,1-c]pyrazine-9-carboxylic acid] | < 0.1 | > 25 |
| C[C@@H]1Cn2nc(-c3ccc(F)cc3)c(-c3ccc(F)cc3)c2-c2cc(=O)c(C(=O)O)cn21 [Example 204, (R)-1,2-bis(4-fluorophenyl)-6-methyl-10-oxo-5,6-dihydro-10H-pyrazolo[1,5-a]pyrido[2,1-c]pyrazine-9-carboxylic acid] | < 0.1 | > 25 |
| CC(C)[C@@H]1Cn2nc(C3CC3)c(-c3ccoc3)c2-c2cc(=O)c(C(=O)O)cn21 [Example 132, (R)-2-cyclopropyl-1-(furan-3-yl)-6-isopropyl-10-oxo-5,6-dihydro-10H-pyrazolo[1,5-a]pyrido[2,1-c]pyrazine-9-carboxylic acid] | < 0.1 | > 25 |
| CC(C)(C)[C@@H]1Cn2nc(-c3ccc4c(c3)OCCO4)cc2-c2cc(=O)c(C(=O)O)cn21 [Example 18, (R)-6-(tert-butyl)-2-(2,3-dihydrobenzo[b][1,4]dioxin-6-yl)-10-oxo-5,6-dihydro-10H-pyrazolo[1,5-a]pyrido[2,2-c]pyrazine-12-carboxylic acid] | < 0.1 | > 25 |
| CC(C)(C)[C@@H]1Cn2nc(-c3ccncc3F)cc2-c2cc(=O)c(C(=O)O)cn21 [Example 41, (R)-6-(tert-butyl)-2-(3-fluoropyridin-4-yl)-10-oxo-5,6-dihydro-10H-pyrazolo[1,5-a]pyrido[2,2-c]pyrazine-12-carboxylic acid] | < 0.1 | > 25 |
| CCCOc1ccccc1-c1cc2n(n1)C[C@@H](C(C)(C)C)n1cc(C(=O)O)c(=O)cc1-2 [Example 77, (R)-6-(tert-butyl)-10-oxo-2-(2-propoxyphenyl)-5,6-dihydro-10H-pyrazolo[1,5-a]pyrido[2,2-c]pyrazine-12-carboxylic acid] | < 0.1 | > 25 |
| CC(C)(C)[C@@H]1Cn2nc(-c3cccc4c3OCCCO4)cc2-c2cc(=O)c(C(=O)O)cn21 [Example 43, (R)-6-(tert-butyl)-2-(3,4-dihydro-2H-benzo[b][1,4]dioxepin-6-yl)-10-oxo-5,6-dihydro-10H-pyrazolo[1,5-a]pyrido[2,2-c]pyrazine-12-carboxylic acid] | < 0.1 | > 25 |
| CC(C)(C)[C@@H]1Cn2nc(-c3c(F)ccc4c3OCO4)cc2-c2cc(=O)c(C(=O)O)cn21 [Example 54, (R)-6-(tert-butyl)-2-(5-fluorobenzo[d][1,3]dioxol-4-yl)-10-oxo-5,6-dihydro-10H-pyrazolo[1,5-a]pyrido[2,2-c]pyrazine-12-carboxylic acid] | < 0.1 | > 25 |
